Reference: the supplement of paper PMC10307832

Experiments:
Assay in all cases: relative viability (nuclei count vs DMSO), 5 days (fraction); higher = more cells survive
Crenolanib + Navitoclax = compound: CC1(COc2ccc3c(c2)ncn3-c2ccc3cccc(N4CCC(N)CC4)c3n2)COC1 [Crenolanib] + CC1(C)CCC(c2ccc(Cl)cc2)=C(CN2CCN(c3ccc(C(=O)NS(=O)(=O)c4ccc(N[C@H](CCN5CCOCC5)CSc5ccccc5)c(S(=O)(=O)C(F)(F)F)c4)cc3)CC2)C1 [Navitoclax] (partner 0.5 µM)
How it was run: (§1)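 Lung cancer cell lines, seeded in 1536-well plates, were treated the following day by pin tool with a single drug or with five library-drug doses (not always all listed) in √10 steps on top of a fixed anchor-drug dose. Cells were fixed and nuclei stained in one step after 5 days, and nuclei were counted. Relative viability is the nuclei count for treated wells divided by that for vehicle wells, reported as medians of duplicate plates.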

Crenolanib + Lapatinib = compound: CC1(COc2ccc3c(c2)ncn3-c2ccc3cccc(N4CCC(N)CC4)c3n2)COC1 [Crenolanib] + CS(=O)(=O)CCNCc1ccc(-c2ccc3ncnc(Nc4ccc(OCc5cccc(F)c5)c(Cl)c4)c3c2)o1 [Lapatinib] (partner 2 µM)
How it was run: as §1

Tivantinib + Luminespib = compound: O=C1NC(=O)[C@@H](c2cn3c4c(cccc24)CCC3)[C@@H]1c1c[nH]c2ccccc12 [Tivantinib] + CCNC(=O)c1noc(-c2cc(C(C)C)c(O)cc2O)c1-c1ccc(CN2CCOCC2)cc1 [Luminespib] (partner 0.01 µM)
How it was run: as §1

Tivantinib + Dasatinib = compound: O=C1NC(=O)[C@@H](c2cn3c4c(cccc24)CCC3)[C@@H]1c1c[nH]c2ccccc12 [Tivantinib] + Cc1nc(Nc2ncc(C(=O)Nc3c(C)cccc3Cl)s2)cc(N2CCN(CCO)CC2)n1 [Dasatinib] (partner 0.075 µM)
How it was run: as §1

Cell Line	relative viability (Crenolanib + Navitoclax; first compound 0.01 µM)	relative viability (Crenolanib + Navitoclax; first compound 0.03162 µM)	relative viability (Crenolanib + Navitoclax; first compound 0.1 µM)	relative viability (Crenolanib + Navitoclax; first compound 0.3162 µM)	relative viability (Crenolanib + Navitoclax; first compound 1 µM)	relative viability (Crenolanib + Lapatinib; first compound 0.01 µM)	relative viability (Crenolanib + Lapatinib; first compound 0.03162 µM)	relative viability (Crenolanib + Lapatinib; first compound 0.1 µM)	relative viability (Crenolanib + Lapatinib; first compound 0.3162 µM)	relative viability (Crenolanib + Lapatinib; first compound 1 µM)	relative viability (Tivantinib + Luminespib; first compound 0.01 µM)	relative viability (Tivantinib + Luminespib; first compound 0.03162 µM)	relative viability (Tivantinib + Luminespib; first compound 0.1 µM)	relative viability (Tivantinib + Luminespib; first compound 0.3162 µM)	relative viability (Tivantinib + Dasatinib; first compound 0.01 µM)	relative viability (Tivantinib + Dasatinib; first compound 0.03162 µM)	relative viability (Tivantinib + Dasatinib; first compound 0.1 µM)	relative viability (Tivantinib + Dasatinib; first compound 0.3162 µM)
NCI-H2009	1.2	1.17	1.13	1.24	1.01	1.07	0.889	0.899	0.913	0.906	0.989	1.08	0.985	1.1	0.381	0.255	0.301	0.285
NCI-H596	1.02	1.04	0.805	0.899	0.822	0.947	1.09	0.89	1.14	1.18	1.01	1.01	1.08	0.935	0.486	0.543	0.635	0.619
NCI-H1915	0.792	0.769	0.786	0.828	0.831	0.943	0.927	1.01	0.956	0.764	0.883	0.775	0.722	0.765	0.305	0.277	0.294	0.334
SW 1573	1.11	1.17	0.867	1.03	1.23	1.01	1.06	1.3	1.18	1.1	0.263	0.525	0.17	0.271	0.717	0.481	0.453	0.548
